# Source: patent US11439642B2 (Adverio Pharma GmbH, priority 2010, dated 2022)
# Biological target: T1, recombinant guanylate cyclase reporter cell line (Rattus norvegicus, UniProt P19686+P20595)
# T1 construct: expressed in transfected cells
# T1 sequence (P20595 1-619): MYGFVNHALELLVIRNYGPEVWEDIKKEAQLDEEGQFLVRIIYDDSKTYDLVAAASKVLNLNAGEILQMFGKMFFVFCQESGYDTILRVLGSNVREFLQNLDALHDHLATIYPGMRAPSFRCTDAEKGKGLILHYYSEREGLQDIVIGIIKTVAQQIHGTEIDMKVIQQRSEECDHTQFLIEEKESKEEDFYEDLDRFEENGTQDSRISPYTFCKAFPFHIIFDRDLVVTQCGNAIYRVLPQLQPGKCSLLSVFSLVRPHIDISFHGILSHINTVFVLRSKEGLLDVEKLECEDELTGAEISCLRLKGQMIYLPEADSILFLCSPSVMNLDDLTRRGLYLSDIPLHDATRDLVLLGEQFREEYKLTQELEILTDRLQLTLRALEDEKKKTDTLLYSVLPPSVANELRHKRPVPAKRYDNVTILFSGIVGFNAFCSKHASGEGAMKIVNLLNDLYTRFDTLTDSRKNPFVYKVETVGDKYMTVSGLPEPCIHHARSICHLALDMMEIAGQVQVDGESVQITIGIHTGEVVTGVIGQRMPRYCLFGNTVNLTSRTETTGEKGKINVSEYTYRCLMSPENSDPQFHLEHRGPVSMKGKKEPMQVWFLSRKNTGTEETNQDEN
# T1 sequence (P19686 1-690): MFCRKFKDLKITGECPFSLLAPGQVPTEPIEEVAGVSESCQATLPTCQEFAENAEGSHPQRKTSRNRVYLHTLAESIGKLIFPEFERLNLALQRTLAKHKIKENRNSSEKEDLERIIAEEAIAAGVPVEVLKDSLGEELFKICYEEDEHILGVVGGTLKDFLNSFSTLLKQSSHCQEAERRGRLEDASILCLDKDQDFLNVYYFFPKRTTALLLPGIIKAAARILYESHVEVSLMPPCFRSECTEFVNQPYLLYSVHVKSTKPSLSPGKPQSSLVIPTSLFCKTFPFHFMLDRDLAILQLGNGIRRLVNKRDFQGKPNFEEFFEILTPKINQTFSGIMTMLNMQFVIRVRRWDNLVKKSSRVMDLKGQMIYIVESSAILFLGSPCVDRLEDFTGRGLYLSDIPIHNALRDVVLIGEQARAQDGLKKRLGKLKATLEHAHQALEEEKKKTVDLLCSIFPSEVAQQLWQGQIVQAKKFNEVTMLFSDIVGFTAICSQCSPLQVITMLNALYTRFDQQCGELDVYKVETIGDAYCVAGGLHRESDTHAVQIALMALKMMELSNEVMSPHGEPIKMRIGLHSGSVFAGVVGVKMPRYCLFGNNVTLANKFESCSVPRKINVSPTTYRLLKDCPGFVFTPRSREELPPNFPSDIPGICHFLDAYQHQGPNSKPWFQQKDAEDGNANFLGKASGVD
# Test: Effect on a recombinant guanylate cyclase reporter cell line
# Format: cell-based
# Procedure: The cellular activity of the compounds according to the invention is determined using a recombinant guanylate cyclase reporter cell line, as described in F. Wunder et al., Anal. Biochem. 339, 104-112 (2005).
row,Compound,MEC (minimum effective concentration) [µM]
1,"COC(=O)Nc1c(N)nc(-c2nn(Cc3ccccc3F)c3ncc(F)cc23)nc1N [Example 1, Methyl {4,6-diamino-2-[5-fluoro-1-(2-fluorobenzyl)-1H-pyrazolo[3,4-b]pyridin-3-yl]pyrimidin-5-yl}carbamate]",0.3
2,"COC(=O)N(CC(F)(F)F)c1c(N)nc(-c2nn(Cc3ccccc3F)c3ncc(F)cc23)nc1N [Example 3, Methyl {4,6-diamino-2-[5-fluoro-1-(2-fluorobenzyl)-1H-pyrazolo[3,4-b]pyridin-3-yl]pyrimidin-5-yl}(2,2,2-trifluoroethyl)carbamate]",0.03
3,COC(=O)N(C)c1c(N)nc(-c2nn(Cc3ccccc3F)c3ncc(F)cc23)nc1N [Example 2],0.1
